Target: T1, chicken gizzard smooth muscle myosin subfragment-1 chemically crosslinked to cardiac or skeletal actin (Gallus gallus, UniProt P10587)
T1 construct: chicken gizzard smooth muscle myosin subfragment-1; from tissue; host or cells: chicken gizzard
Assay: Smooth muscle myosin ATPase dose response assay (pyruvate kinase/horseradish peroxidase/pyruvate oxidase-coupled, amplex red fluorescence)
Type: biochemical
Conditions: read-out: IC50 Arithmetic Mean
Outline: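 Lead-optimization format: ATPase coupled via pyruvate kinase, pyruvate oxidase and peroxidase, pH 7.00 at 22° C, with 0.15 mM ATP, 100 mM KCl, 2 mM MgCl2, 2 mM phosphate and 0.1 mM amplex red (final). Crosslinked S1 titrated empirically for set hydrolysis rate; fluorescence (ex 480/em 615 nm) dose curves fit 4-parameter for IC50.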

T1 sequence (P02607 2-151): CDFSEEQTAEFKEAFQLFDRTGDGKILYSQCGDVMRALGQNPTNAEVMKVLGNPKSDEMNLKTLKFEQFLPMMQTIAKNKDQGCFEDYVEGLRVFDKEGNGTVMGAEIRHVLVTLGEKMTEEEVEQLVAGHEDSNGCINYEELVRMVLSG
T1 sequence (P10587 84-789): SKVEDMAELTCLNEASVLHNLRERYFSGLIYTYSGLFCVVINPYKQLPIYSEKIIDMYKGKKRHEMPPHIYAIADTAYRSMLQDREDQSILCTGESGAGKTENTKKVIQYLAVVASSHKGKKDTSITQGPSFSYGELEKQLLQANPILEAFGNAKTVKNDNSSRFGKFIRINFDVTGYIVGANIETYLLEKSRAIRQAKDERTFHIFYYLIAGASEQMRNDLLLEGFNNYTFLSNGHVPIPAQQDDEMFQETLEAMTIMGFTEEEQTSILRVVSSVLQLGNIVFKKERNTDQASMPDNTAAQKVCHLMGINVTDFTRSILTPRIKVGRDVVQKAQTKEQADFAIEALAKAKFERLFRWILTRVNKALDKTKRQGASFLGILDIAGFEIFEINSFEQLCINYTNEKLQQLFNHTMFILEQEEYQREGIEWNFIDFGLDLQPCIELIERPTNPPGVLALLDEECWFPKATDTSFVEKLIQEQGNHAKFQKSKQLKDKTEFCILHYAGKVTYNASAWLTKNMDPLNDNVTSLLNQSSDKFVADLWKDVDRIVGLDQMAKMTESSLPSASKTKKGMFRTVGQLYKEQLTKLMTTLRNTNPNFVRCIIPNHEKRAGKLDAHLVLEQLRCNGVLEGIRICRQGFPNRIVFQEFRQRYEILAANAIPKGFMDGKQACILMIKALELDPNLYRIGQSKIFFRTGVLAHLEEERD

Row | SMILES | IC50 [nM]
1 | COC(=O)N1CCN(C)C[C@@H]1CNC(=O)c1ccc(-c2ccccc2C#N)nc1NCCc1cccc(F)c1 [methyl (2S)-2-{[(6-(2-cyanophenyl)-2-{[2-(3-fluorophenyl)ethyl]amino}(3-pyridyl))carbonylamino]methyl}-4-methylpiperazinecarboxylate] | 10100
2 | O=C(NC[C@H]1CCN1)c1ccc(-c2cn[nH]c2)nc1NCCc1cccc(F)c1 [N-[((2R)azetidin-2-yl)methyl](2-{[2-(3-fluorophenyl)ethyl]amino}-6-pyrazol-4-yl(3-pyridyl))carboxamide] | 5440
3 | N#Cc1ccccc1-c1ccc(C(=O)NC2CCC(C(N)=O)C2)c(NCCc2cccc(F)c2)n1 (centres unmarked) [3-[(6-(2-cyanophenyl)-2-{[2-(3-fluorophenyl)ethyl]amino}-3-pyridyl)carbonylamino]cyclopentanecarboxamide] | 11600
4 | CN(C)c1cccc(-c2ccc(C(=O)NCc3cccnc3)c(NCCc3ccccn3)n2)c1 [{6-[3-(dimethylamino)phenyl]-2-[(2-(2-pyridyl)ethyl)amino](3-pyridyl)}-N-(3-pyridylmethyl)carboxamide] | 12400
5 | CC(=O)N1CCC[C@H]1CNC(=O)c1ccc(-c2ccccc2)nc1NCCc1ccccn1 [N-[((2S)-1-acetylpyrrolidin-2-yl)methyl]{6-phenyl-2-[(2-(2-pyridyl)ethyl)amino](3-pyridyl)}carboxamide] | 15700
6 | N#Cc1ccc(-c2ccc(C(=O)NCc3cccnc3)c(NCCc3ccccn3)n2)cc1 [{6-(4-cyanophenyl)-2-[(2-(2-pyridyl)ethyl)amino](3-pyridyl)}-N-(3-pyridylmethyl)carboxamide] | 1930
7 | CN(CCNC(=O)c1ccc(-c2ccccc2C#N)nc1NCCc1cccc(F)c1)C(=O)OC(C)(C)C [N-{2-[(tert-butoxy)-N-methylcarbonylamino]ethyl}(6-(2-cyanophenyl)-2-{[2-(3-fluorophenyl)ethyl]amino}(3-pyridyl))carboxamide] | 42200
8 | Cn1cc(-c2ccc(C(=O)NCC3CCN(CCCNC(=O)OC(C)(C)C)C3=O)c(NCCc3cccc(F)c3)n2)cn1 (centres unmarked) [N-[(1-{3-[(tert-butoxy)carbonylamino]propyl}-2-oxopyrrolidin-3-yl)methyl](2-{[2-(3-fluorophenyl)ethyl]amino}-6-(1-methylpyrazol-4-yl)(3-pyridyl))carboxamide] | 699
9 | N#Cc1ccccc1-c1ccc(C(=O)NCc2ccc(F)cc2)c(NCCc2cccc(F)c2)n1 [(6-(2-cyanophenyl)-2-{[2-(3-fluorophenyl)ethyl]amino}(3-pyridyl))-N-[(4-fluorophenyl)methyl]carboxamide] | 2110
10 | Cc1cc(C)cc(-c2ccc(C(=O)NCc3cccnc3)c(NCCc3ccccn3)n2)c1 [{6-(3,5-dimethylphenyl)-2-[(2-(2-pyridyl)ethyl)amino](3-pyridyl)}-N-(3-pyridylmethyl)carboxamide] | 10100
11 | CNCCNC(=O)c1ccc(-c2ccccc2C#N)nc1NCCc1cccc(F)c1 [(6-(2-cyanophenyl)-2-{[2-(3-fluorophenyl)ethyl]amino}(3-pyridyl))-N-[2-(methylamino)ethyl]carboxamide] | 4460
12 | CC(C)(C)OC(=O)N[C@H](CO)C(=O)N1CC[C@@H]1CNC(=O)c1ccc(-c2ccccc2C#N)nc1NCCc1cccc(F)c1 [N-[(1R)-2-((2R)-2-{[(6-(2-cyanophenyl)-2-{[2-(3-fluorophenyl)ethyl]amino}(3-pyridyl))carbonylamino]methyl}azetidinyl)-1-(hydroxymethyl)-2-oxoethyl](tert-butoxy)carboxamide] | 439

Further lines, results first:

Row | IC50 [nM] | SMILES
13 | 381 | Cn1cc(-c2nc(NCCc3cccc(F)c3)c(C(=O)NCC(C)(C)O)cc2F)cn1 [(5-fluoro-2-{[2-(3-fluorophenyl)ethyl]amino}-6-(1-methylpyrazol-4-yl)(3-pyridyl))-N-(2-hydroxy-2-methylpropyl)carboxamide]
14 | 29 | N#Cc1ccccc1-c1ccc(C(=O)NCc2ccccn2)c(NCCc2cccc(F)c2)n1 [(6-(2-cyanophenyl)-2-{[2-(3-fluorophenyl)ethyl]amino}(3-pyridyl))-N-(2-pyridylmethyl)carboxamide]
15 | 117 | O=C(NCc1cccc(Br)n1)c1ccc(-c2cn[nH]c2)nc1NCCc1cccc(F)c1 [N-[(6-bromo(2-pyridyl))methyl](2-{[2-(3-fluorophenyl)ethyl]amino}-6-pyrazol-4-yl(3-pyridyl))carboxamide]
16 | 48 | O=C(NCc1cccnc1)c1ccc(-c2ccsc2)nc1NCCc1cccc(F)c1 [(2-{[2-(3-fluorophenyl)ethyl]amino}-6-(3-thienyl)(3-pyridyl))-N-(3-pyridylmethyl)carboxamide]
17 | 1270 | CNC(=O)[C@@H](C)NC(=O)c1ccc(-c2ccccc2C#N)nc1NCCc1cccc(F)c1 [(2R)-2-[(6-(2-cyanophenyl)-2-{[2-(3-fluorophenyl)ethyl]amino}(3-pyridyl))carbonylamino]-N-methylpropanamide]
18 | 1330 | O=C(NCc1cccnc1)c1ccc(-c2cc(F)ccc2Cl)nc1NCCc1cccc(F)c1 [(6-(2-chloro-5-fluorophenyl)-2-{[2-(3-fluorophenyl)ethyl]amino}(3-pyridyl))-N-(3-pyridylmethyl)carboxamide]
19 | 382 | N#Cc1ccccc1-c1ccc(C(=O)NCC2CCN(CCCN)C2=O)c(NCCc2cccc(F)c2)n1 (centres unmarked) [N-{[1-(3-aminopropyl)-2-oxopyrrolidin-3-yl]methyl}(6-(2-cyanophenyl)-2-{[2-(3-fluorophenyl)ethyl]amino}(3-pyridyl))carboxamide]
20 | 52 | C[C@H](N)C(=O)N1CCCC[C@@H]1CNC(=O)c1ccc(-c2ccccc2C#N)nc1NCCc1cccc(F)c1 [N-{[(2R)-1-((2S)-2-aminopropanoyl)(2-piperidyl)]methyl}(6-(2-cyanophenyl)-2-{[2-(3-fluorophenyl)ethyl]amino}(3-pyridyl))carboxamide]
21 | 12 | Cn1cc(-c2nc(NCCc3cccc(F)c3)c(C(=O)NCc3cccnc3CN)cc2F)cn1 [N-{[2-(aminomethyl)(3-pyridyl)]methyl}(5-fluoro-2-{[2-(3-fluorophenyl)ethyl]amino}-6-(1-methylpyrazol-4-yl)(3-pyridyl))carboxamide]
22 | 124 | O=C(NCc1cccnc1)c1ccc(-c2cc[nH]n2)nc1NCCc1cccc(F)c1 [(2-{[2-(3-fluorophenyl)ethyl]amino}-6-pyrazol-3-yl(3-pyridyl))-N-(3-pyridylmethyl)carboxamide]
23 | 194 | CC(C)(CNC(=O)c1ccc(-c2ccccc2C#N)nc1NCCc1cccc(F)c1)NC(=O)CCCNC(=O)OC(C)(C)C
24 | 525 | CC(C)(C)OC(=O)N1CC[C@@H]1CNC(=O)c1ccc(-c2cn[nH]c2)nc1NCCc1cccc(F)c1 [tert-butyl (2R)-2-{[(2-{[2-(3-fluorophenyl)ethyl]amino}-6-pyrazol-4-yl(3-pyridyl))carbonylamino]methyl}azetidinecarboxylate]
25 | 415 | CC(O)c1ccc(-c2ccc(C(=O)NCc3cccnc3)c(NCCc3cccc(F)c3)n2)s1 (centres unmarked) [(2-{[2-(3-fluorophenyl)ethyl]amino}-6-[5-(hydroxyethyl)(2-thienyl)](3-pyridyl))-N-(3-pyridylmethyl)carboxamide]
26 | 246 | N#Cc1ccccc1-c1ccc(C(=O)NC[C@H]2CCCN(C(=O)CN)C2)c(NCCc2cccc(F)c2)n1 [N-{[(3R)-1-(2-aminoacetyl)(3-piperidyl)]methyl}(6-(2-cyanophenyl)-2-{[2-(3-fluorophenyl)ethyl]amino}(3-pyridyl))carboxamide]

Source: patent US7932270B2 (Cytokinetics, Inc., priority 2006, dated 2011)
